Among the test systems are IGROV1 ovarian; MCF7 breast; HOP-92 NSCLC; SNB-19 CNS; SF-295 CNS; CCRF-CEM leukemia; TK-10 renal; NCI-H460 lung; ACHN renal; K-562 leukemia.
Common to all, as to assay: growth of human tumour cells (NCI), 48 h

Molecules are shown by their SMILES.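 Growth conditions: 96-well plates. Treatment: test compound, 48 hours, 5 concentrations. Analysis: linear interpolation between bracketing concentrations; unreached endpoints set to highest concentration. At the GI50, growth is halved. Definition used: TGI = concentration required for complete inhibition of growth.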 Where only a bound is given, the exact number is not on record here.

As for `C=C1C(=O)O[C@H]2[C@H]1CC/C(COC(=O)c1cccnc1N)=C\CC[C@@]1(C)O[C@@H]21`, the GI50 in the assay on IGROV1 ovarian is 2.56 µM; in the assay on MCF7 breast, 0.553 µM; with HOP-92 NSCLC, 0.282 µM; with SNB-19 CNS it was 8.65 µM; in the assay with SF-295 CNS it was 4.15 µM; in the assay with CCRF-CEM leukemia it was 0.345 µM. Further, the GI50 in the assay with TK-10 renal was 2.59 µM; in the assay on NCI-H460 lung, 3.09 µM; in the assay on ACHN renal, 1.03 µM; with K-562 leukemia it was 0.396 µM. The TGI in the assay with IGROV1 ovarian was 11.6 µM; in the assay with MCF7 breast it was 14.6 µM; in the assay with HOP-92 NSCLC, 2.63 µM; in the assay with SNB-19 CNS, 28.5 µM; in the assay on SF-295 CNS it was 16 µM; in the assay on CCRF-CEM leukemia it was 2.47 µM. The TGI in the assay on TK-10 renal is 10.4 µM; with NCI-H460 lung it was 10.8 µM; in the assay on ACHN renal, 10.3 µM; in the assay with K-562 leukemia, 14.1 µM.
Consider `COc1ccc2c(c1)C(=Nc1ccc(F)c(Cl)c1)c1c-2c(Nc2ccc(F)c(Cl)c2)nc2ccccc12`, for which the GI50 was 30.1 µM in the assay on IGROV1 ovarian; 56.2 µM in the assay with MCF7 breast; 33.8 µM in the assay on HOP-92 NSCLC; 44.8 µM in the assay on SNB-19 CNS; 33 µM in the assay on SF-295 CNS; 0.804 µM with CCRF-CEM leukemia. For the same compound, the GI50 in the assay on TK-10 renal is 34.5 µM; in the assay on NCI-H460 lung, > 100 µM; in the assay with ACHN renal, 24.1 µM; in the assay on K-562 leukemia, 4.19 µM. Besides, the TGI in the assay on IGROV1 ovarian is > 100 µM; in the assay with MCF7 breast, > 100 µM; with HOP-92 NSCLC, > 100 µM; with SNB-19 CNS, > 100 µM; with SF-295 CNS, > 100 µM; in the assay with CCRF-CEM leukemia, 3.99 µM. For the same compound, the TGI with TK-10 renal is > 80 µM; in the assay on NCI-H460 lung, > 100 µM; with ACHN renal it was > 70.8 µM; in the assay on K-562 leukemia, 37 µM.
For the compound `Brc1ccccc2cc(-c3ccccc3)nc1-2`, the TGI in the assay on IGROV1 ovarian is 26.5 µM; in the assay with MCF7 breast, 64.8 µM; in the assay with HOP-92 NSCLC it was 19.8 µM; in the assay on SNB-19 CNS, 40.7 µM; with SF-295 CNS it was 48.9 µM; in the assay with CCRF-CEM leukemia, > 48.5 µM. The TGI with TK-10 renal was 30.8 µM; in the assay on NCI-H460 lung, 73.5 µM; with ACHN renal, 20.6 µM; with K-562 leukemia it was > 61.2 µM.
Consider `O=S1(=O)c2ccccc2N(c2ccccc2)c2nnnn21`, for which the TGI in the assay with IGROV1 ovarian was > 100 µM; in the assay on MCF7 breast, > 100 µM; with HOP-92 NSCLC, 88.7 µM; with SNB-19 CNS, 88.5 µM; in the assay on SF-295 CNS it was > 100 µM; with CCRF-CEM leukemia it was 31 µM. The TGI in the assay on TK-10 renal, in the assay with NCI-H460 lung, in the assay on ACHN renal and with K-562 leukemia was > 100 µM in each case.
On to `Cc1ccc(/C=N/NC(=O)c2ccccc2Oc2ccccc2)o1`, for which the GI50 in the assay with IGROV1 ovarian is 59.5 µM; in the assay with MCF7 breast, 32.9 µM; in the assay with HOP-92 NSCLC, 12.5 µM; in the assay with SNB-19 CNS, 48.4 µM; in the assay on SF-295 CNS it was 27.9 µM; in the assay on CCRF-CEM leukemia, 30.9 µM. In addition, the GI50 in the assay with TK-10 renal is 71.6 µM; in the assay with NCI-H460 lung, 44.4 µM; in the assay on ACHN renal, 28.5 µM; in the assay with K-562 leukemia it was 33.8 µM. For the same compound, the TGI is > 100 µM in the assay on IGROV1 ovarian; > 100 µM in the assay with MCF7 breast; > 95.4 µM with HOP-92 NSCLC; > 100 µM in the assay on SNB-19 CNS; > 100 µM in the assay with SF-295 CNS; > 100 µM in the assay on CCRF-CEM leukemia. For the same compound, the TGI with TK-10 renal, in the assay with NCI-H460 lung, with ACHN renal and in the assay with K-562 leukemia was > 100 µM in each case.
For the compound `Cc1sc(C(=O)c2cncnc2N[C@@H]2C[C@H](COS(N)(=O)=O)[C@@H](O)C2)cc1[C@@H]1NCCc2ccc(Cl)cc21`, the GI50 in the assay with IGROV1 ovarian is 11 µM; in the assay on MCF7 breast, 0.0138 µM; with HOP-92 NSCLC, 0.0783 µM; in the assay with SNB-19 CNS, 14.8 µM; in the assay with SF-295 CNS it was 11 µM; with CCRF-CEM leukemia, 0.0801 µM. The GI50 in the assay on TK-10 renal was 12.9 µM; in the assay on NCI-H460 lung, 0.466 µM; with ACHN renal, 11.8 µM; in the assay on K-562 leukemia, 4.19 µM. Also, the TGI in the assay on IGROV1 ovarian came out at 25.7 µM; in the assay on MCF7 breast, 17.3 µM; in the assay on HOP-92 NSCLC it was 12.9 µM; in the assay with SNB-19 CNS it was 28.8 µM; in the assay on SF-295 CNS, 23.2 µM; in the assay with CCRF-CEM leukemia it was 20.1 µM. Besides, the TGI in the assay with TK-10 renal was determined as 26.8 µM; in the assay with NCI-H460 lung it was 20.6 µM; in the assay on ACHN renal, 25.7 µM; in the assay with K-562 leukemia it was 34.2 µM.
With `COc1cc2c(cc1OC)C(C(CCCCCC(CCC(C)C)C1NCCc3cc(OC)c(OC)cc31)CCC(C)C)NCC2` (stereo not given), the GI50 in the assay with IGROV1 ovarian was 2.08 µM; with MCF7 breast it was 0.651 µM; in the assay with HOP-92 NSCLC, 0.808 µM; in the assay with SNB-19 CNS, 1.45 µM; with SF-295 CNS it was 1.64 µM; in the assay with CCRF-CEM leukemia, 0.489 µM. Besides, the GI50 with TK-10 renal is 1.76 µM; with NCI-H460 lung it was 0.217 µM; with ACHN renal, 1.68 µM; in the assay on K-562 leukemia it was 0.201 µM. Besides, the TGI stood at 3.94 µM in the assay on IGROV1 ovarian; 1.91 µM with MCF7 breast; 2.46 µM in the assay on HOP-92 NSCLC; 2.87 µM in the assay with SNB-19 CNS; 3.43 µM with SF-295 CNS; 2.13 µM in the assay with CCRF-CEM leukemia. Moreover, the TGI with TK-10 renal came to 3.21 µM; with NCI-H460 lung, 0.436 µM; in the assay with ACHN renal, 3.17 µM; in the assay on K-562 leukemia, 0.441 µM.
As for `CC12OC(CC(O)C1O)n1c3ccccc3c3c4c(c5c6ccccc6n2c5c31)C(=O)N(CCN1CCOCC1)C4=O` (stereo not given), the GI50 in the assay on IGROV1 ovarian is 0.98 µM; with MCF7 breast, 0.242 µM; in the assay on HOP-92 NSCLC it was 2.03 µM; in the assay on SNB-19 CNS it was 1.46 µM; in the assay with SF-295 CNS, 0.598 µM; with CCRF-CEM leukemia, 1.16 µM. Further, the GI50 is 0.953 µM in the assay on TK-10 renal, 0.205 µM in the assay with NCI-H460 lung, 0.526 µM in the assay with ACHN renal and 1.25 µM in the assay with K-562 leukemia. Also, the TGI in the assay on IGROV1 ovarian worked out at 8.65 µM; in the assay with MCF7 breast, 8.02 µM; in the assay with HOP-92 NSCLC, 9.4 µM; in the assay with SNB-19 CNS it was 13.9 µM; with SF-295 CNS, 3.17 µM; with CCRF-CEM leukemia it was 8.95 µM. The TGI was 5.48 µM in the assay on TK-10 renal, 1.7 µM in the assay with NCI-H460 lung, 1.69 µM in the assay on ACHN renal and 10.4 µM in the assay on K-562 leukemia.
For the compound `NS(=O)(=O)c1ccc(N=Nc2ccc[nH]c2=O)cc1`, the TGI is > 100 µM with IGROV1 ovarian; > 100 µM in the assay with MCF7 breast; > 100 µM in the assay on HOP-92 NSCLC; > 100 µM with SNB-19 CNS; > 100 µM in the assay with SF-295 CNS; 74.6 µM in the assay on CCRF-CEM leukemia. Also, the TGI in the assay with TK-10 renal, with NCI-H460 lung, with ACHN renal and with K-562 leukemia was > 100 µM in each case.

The record behind these values is PubChem BioAssay (NCI).
